Read-outs that look alike come from different tables or passages of the source.
Tests used:
HTT mRNA = assay: RT-qPCR splicing assay, HTT canonical junction (CJ) and alternative junction (AJ) mRNA; assay type: cell-based, human; conditions: Homo sapiens; for AC50: increase in HTT alternative junction (AJ) mRNA, read-out: HTT AJ AC50
Description: (§1) The expression of a target mRNA was measured by detecting the formation of an exon-exon junction in the canonical transcript (CJ). A compound mediated exon-inclusion event was detected by observing an increase in formation of a new junction with an alternative exon (AJ). Real-time qPCR assays were used to detect these splicing switches and interrogate the potency of various compounds towards different target genes. A high-throughput real time quantitative PCR (RT-qPCR) assay was developed to measure these two isoforms of the mRNA (CJ and AJ) for exemplary genes, such as HTT, SMN2, and MYB, together with a control housekeeping gene, GAPDH or GUSB or PPIA, used for normalization. Briefly, the A673 or K562 cell line was treated with various compounds described herein (e.g., compounds of Formula (I)). After treatment, the levels of the HTT, MYB, or SMN2 mRNA targets were determined from each sample of cell lysate by cDNA synthesis followed by qPCR.
(§2) • Cells-to-CT 1-step kit: ThermoFisher A25602, Cells-to-CT lysis reagent: ThermoFisher 4391851C, TaqMan™ Fast Virus 1-Step Master Mix: ThermoFisher 4444436 • GAPDH: VIC-PL, ThermoFisher 4326317E (Assay: Hs99999905_m1)—used for K562/suspension cell lines • GUSB: VIC-PL, ThermoFisher 4326320E (Assay: Hs99999908_m1)—used for K562/suspension cell lines • PPIA: VIC-PL, ThermoFisher 4326316E (Assay: Hs99999904_m1)—used for A673/adherent cell lines
(§3) The A673 cell line was cultured in DMEM with 10% FBS. Cells were diluted with full growth media and plated in a 96-well plate (15,000 cells in 100 ul media per well). The plate was incubated at 37° C. with 5% CO2 for 24 hours to allow cells to adhere. An 11-point 3-fold serial dilution of the compounds was made in DMSO then diluted in media in an intermediate plate. Compounds were transferred from the intermediate plate to the cell plate with the top dose at a final concentration of 10 uM in the well. Final DMSO concentration was kept at or below 0.25%. The cell plate was returned to the incubator at 37° C. with 5% CO2 for an additional 24 hours.
(§4) The K562 cell line was cultured in IMDM with 10% FBS. For K562, cells were diluted with full growth media and plated in either a 96-well plate (50,000 cells in 50 uL media per well) or a 384-well plate (8,000-40,000 cells in 45 uL media per well). An 11-point 3-fold serial dilution of the compounds were made in DMSO then diluted in media in an intermediate plate. Compound was transferred from the intermediate plate to the cell plate with the top dose at a final concentration of 10 uM in the well. Final DMSO concentration was kept at or below 0.25%. Final volume was 100 uL for 96-well plate and 50 uL for 384-well plate. The cell plate was then placed in an incubator at 37° C. with 5% CO2 for 24 hours.
(§5) The cells were then gently washed with 50 uL-100 uL cold PBS before proceeding to addition of lysis buffer. 30 uL-50 uL of room temperature lysis buffer with DNAse I (and optionally RNAsin) was added to each well. Cells were shaken/mixed thoroughly at room temperature for 5-10 minutes for lysis to take place and then 3 uL-5 uL of room temperature stop solution was added and wells were shaken/mixed again. After 2-5 minutes, the cell lysate plate was transferred to ice for RT-qPCR reaction setup. The lysates could also be frozen at −80° C. for later use.
(§6) In some cases, a direct lysis buffer was used. An appropriate volume of 3× lysis buffer (10 mM Tris, 150 mM NaCl, 1.5%-2.5% Igepal and 0.1-1 U/uL RNAsin, pH 7.4) was directly added to either K562 or A673 cells in media and mixed by pipetting 3 times. The plates were then incubated at room temperature with shaking/rocking for 20-50 minutes to allow for lysis to take place. After this time, the cell lysate plate was transferred to ice to set up for the RT-qPCR reactions. The lysates could also be frozen at −80° C. for later use.

Target C = assay: RT-qPCR splicing assay panel, Target C canonical junction (CJ) mRNA; assay type: cell-based, human; conditions: Homo sapiens; canonical junction qPCR panel, Table 5; read-out: Target C (decrease in CJ mRNA levels, IC50)
Description: as §1, §3, §4, §5, §6
(§7) To set up 10 uL RT-qPCR reactions, cell lysates were transferred to 384-well qPCR plates containing the master mix according to the table below. The plates were sealed, gently vortexed, and spun down before the run. The volumes were adjusted accordingly in some instances where the reaction was carried in 20 uL. The table below summarizes the components of the RT-qPCR reactions:
(§8) The RT-qPCR reaction was performed using a QuantStudio (ThermoFisher) under the following fast cycling conditions.

[1] = test system: K562 (human chronic myelogenous leukemia) cells; assay: Cell Titer Glo 2.0 cell viability assay; assay type: cell-based; conditions: Homo sapiens, K562, 72 h, K562 cells, 72 hours, Cell Titer Glo 2.0; read-out: K562 GI50
MYB mRNA = assay: RT-qPCR splicing assay, MYB canonical junction (CJ) and alternative junction (AJ) mRNA; assay type: cell-based, human; conditions: Homo sapiens; for AC50: increase in MYB alternative junction (AJ) mRNA, read-out: MYB AJ AC50
Description: as §1, §2, §3, §4, §5, §6

SMN2 mRNA = assay: RT-qPCR splicing assay, SMN2 canonical junction (CJ) mRNA; assay type: cell-based, human; conditions: Homo sapiens; Table 5 panel; canonical junction qPCR; compound concentration having 50% response in CJ decrease; read-out: SMN2 IC50 (decrease in CJ mRNA levels)
Description: as §1, §3, §4, §5, §6, §7, §8

[2] = decrease in HTT canonical junction (CJ) mRNA, RT-qPCR, read-out: HTT CJ IC50
[3] = canonical junction qPCR panel, Table 5, read-out: HTT (decrease in CJ mRNA levels, IC50)
[4] = canonical junction qPCR panel, Table 5, read-out: MYB (decrease in CJ mRNA levels, IC50)
[5] = decrease in MYB canonical junction (CJ) mRNA, RT-qPCR, read-out: MYB CJ IC50

SMILES | IC50 (HTT mRNA; [2]) | AC50 (HTT mRNA; RT-qPCR) | IC50 (HTT mRNA; [3]) | IC50 (Target C) | GI50 [1] | IC50 (MYB mRNA; [4]) | IC50 (MYB mRNA; [5]) | AC50 (MYB mRNA; RT-qPCR) | IC50 (HTT mRNA; Table 5 panel, canonical junction qPCR, compound concentration having 50% response in CJ decrease, read-out: HTT IC50 (decrease in CJ mRNA levels)) | IC50 (SMN2 mRNA)
Cc1cn2nc(-c3ccc4c(=O)n([C@H]5CCNC6(CC6)C5)ccc4n3)cc(C)c2n1 [Compound 1506, 6-[(7S)-4-azaspiro[2.5]octan-7-yl]-2-(2,8-dimethylimidazo[1,2-b]pyridazin-6-yl)-1,6-naphthyridin-5-one] | < 0.1 µM | < 0.1 µM | < 0.1 µM | 0.1 to 1 µM | 0.1 to 1 µM | 0.1 to 1 µM | < 0.1 µM | 0.1 to 1 µM |  | 
Cc1c(O)c(-c2ccc3c(=O)n([C@H]4CCNC5(CC5)C4)ccc3n2)cc2cn(C)nc12 [Compound 1508, 6-[(7S)-4-azaspiro[2.5]octan-7-yl]-2-(6-hydroxy-2,7-dimethyl-indazol-5-yl)-1,6-naphthyridin-5-one] | < 0.1 µM | < 0.1 µM | < 0.1 µM | < 0.1 µM | < 0.1 µM | < 0.1 µM | < 0.1 µM | < 0.1 µM |  | 
Cc1c(O)c(-c2nc(C)c3c(=O)n(C4C[C@H](C)N[C@@H](C)C4)ccc3n2)cc2cn(C)nc12 (stereo partly drawn) [Compound 1516] | 1 to 10 µM | 1 to 10 µM | 1 to 10 µM | > 10 µM | 0.1 to 1 µM | 0.1 to 1 µM | 0.1 to 1 µM | 0.1 to 1 µM |  | 
Cc1cn2cc(-c3ccc4c(=O)n([C@@H]5CCNC6(CC6)C5)ccc4n3)cc(F)c2n1 [Compound 1510] | 1 to 10 µM | 0.1 to 1 µM | 0.1 to 1 µM | 1 to 10 µM | 0.1 to 1 µM | 0.1 to 1 µM | 1 to 10 µM | 0.1 to 1 µM |  | 
Cc1cn2cc(-c3ccc4c(=O)n(C5CCNCC5)ncc4c3)nc2c(C)n1 [Compound 258] | > 10 µM | 1 to 10 µM |  |  |  |  |  |  |  | 
Cc1cn2nc(-c3ccc4c(=O)n([C@@H]5CCNC6(CC6)C5)ccc4n3)cc(C)c2n1 [Compound 1505, 6-[(7R)-4-azaspiro[2.5]octan-7-yl]-2-(2,8-dimethylimidazo[1,2-b]pyridazin-6-yl)-1,6-naphthyridin-5-one] | 0.1 to 1 µM | 0.1 to 1 µM | 0.1 to 1 µM | 0.1 to 1 µM | 1 to 10 µM | 0.1 to 1 µM | 0.1 to 1 µM | 0.1 to 1 µM |  | 
C[C@H]1C[C@@H](n2ccc3nc(-c4cc(F)c5nn(C)cc5c4)ccc3c2=O)CCN1 [Compound 1507] | 0.1 to 1 µM | 0.1 to 1 µM | 0.1 to 1 µM | 1 to 10 µM | 0.1 to 1 µM | 0.1 to 1 µM | 0.1 to 1 µM | 0.1 to 1 µM |  | 
Cc1cc(-c2ccc3nc(N4CCN(C)CC4)[nH]c(=O)c3c2)cc2cn(C)nc12 [Compound 165] | > 10 µM | > 10 µM |  |  |  |  |  |  | > 10 µM | 0.1 to 1 µM
